The assay deals with T1, MMP-13 (Homo sapiens, UniProt P45452).
T1 construct: purchased GenzymeTechne
Description: MMP-13 inhibitory activity (fluorogenic substrate Cy3-PLGLK(Cy5Q)AR-NH2 enzyme assay). Type of assay: biochemical. The settings on record: compound 1 μM; 37° C., 40 min; APMA-activated MMP-13 precursor; read-out: MMP-13 inhibitory rate (%) at 1 μM. How it is done:
To 10 μg of MMP-13 precursor (GenzymeTechne) was added 1 ml of assay buffer (50 mM Tris-HCl (pH 7.5), 10 mM CaCl2, 150 mM NaCl, 0.05% Brij-35), and 4-aminophenylmercuric acid (Sigma) was added to the final concentration of 1 mM. The MMP-13 precursor was activated by incubating at 37° C. for 2 hr.
In a 96 well black plate (Corning), to 6.3 ng/ml of MMP-13 solution (49 μl) diluted with assay buffer was added the test compound (1 μl) diluted with dimethyl sulfoxide (DMSO) and 620 nM Cy3-PLGLK(Cy5Q)AR-NH2 (50 μl, synthesized by Amersham Biosciences) in assay buffer was added to start the enzyme reaction. After incubation at 37° C. for 40 min, 500 mM EDTA solution (6 μl) was added to stop the reaction. For measurement, Farcyte (Amersham Biosciences) was used to measure at excitation wavelength 535 nm and measurement wavelength 595 nm.
T: value of well with addition of DMSO instead of test compound
C: value of well with addition of DMSO instead of test compound and addition of EDTA solution before addition of substrate solution
X: value of well with addition of test compound
With `COc1ccc2nc(C(=O)NCc3cccc(OCCSc4nc[nH]n4)c3)[nH]c(=O)c2c1` [Example 4, 6-(methyloxy)-4-oxo-N-[(3-{[2-(1H-1,2,4-triazol-3-ylthio)ethyl]oxy}phenyl)methyl]-3,4-dihydroquinazoline-2-carboxamide], the inhibition at 1 µM amounted to 99%.
For `N#CCc1csc2nc(C(=O)NCc3cccc(OCCOc4nc[nH]n4)c3)[nH]c(=O)c12` [Example 29, 5-(cyanomethyl)-4-oxo-N-[(3-{[2-(1H-1,2,4-triazol-3-yloxy)ethyl]oxy}phenyl)methyl]-3,4-dihydrothieno[2,3-d]pyrimidine-2-carboxamide] the value was 98%; for `N#Cc1ccc2nc(C(=O)NCc3cccc(COCc4nc[nH]n4)c3)[nH]c(=O)c2c1` [Example 31, 6-cyano-4-oxo-N-[(3-{[(1H-1,2,4-triazol-3-ylmethyl)oxy]methyl}phenyl)methyl]-3,4-dihydroquinazoline-2-carboxamide], 97%.
With `O=C(NCc1ccnc(OCCSc2nc[nH]n2)c1)c1nc2ccccc2c(=O)[nH]1` [Example 19, 4-oxo-N-[(2-{[2-(1H-1,2,4-triazol-3-ylthio)ethyl]oxy}pyridin-4-yl)methyl]-3,4-dihydroquinazoline-2-carboxamide], the inhibition at 1 µM is 93%.
On to `O=C(CCCOc1cccc(CNC(=O)c2nc3ccccc3c(=O)[nH]2)c1)Nc1nc[nH]n1` [Example 40, 4-oxo-N-[(3-{[4-oxo-4-(1H-1,2,4-triazol-3-ylamino)butyl]oxy}phenyl)methyl]-3,4-dihydroquinazoline-2-carboxamide], for which the inhibition at 1 µM came to 94%.
For `Cc1cc2c(=O)[nH]c(C(=O)NCc3cccc(OCCSc4nc[nH]n4)c3)nc2s1` [Example 13, 6-methyl-4-oxo-N-[(3-{[2-(1H-1,2,4-triazol-3-ylthio)ethyl]oxy}phenyl)methyl]-3,4-dihydrothieno[2,3-d]pyrimidine-2-carboxamide], the inhibition at 1 µM was found to be 97%.
For `O=C(NCc1cccc(OCCOc2nc[nH]n2)c1)c1nc2ccc(F)c(NCc3cccc(OCCOc4nc[nH]n4)c3)c2c(=O)[nH]1` [Example 45, 6-fluoro-4-oxo-N-[(3-{[2-(1H-1,2,4-triazol-3-yloxy)ethyl]oxy}phenyl)methyl]-5-{[(3-{[2-(1H-1,2,4-triazol-3-yloxy)ethyl]oxy}phenyl)methyl]amino}-3,4-dihydroquinazoline-2-carboxamide], the inhibition at 1 µM was 97%.
Regarding `O=C(NCc1cccc(OCCSc2nc[nH]n2)c1)c1nc2ccc(F)c(F)c2c(=O)[nH]1` [Example 8, 5,6-difluoro-4-oxo-N-[(3-{[2-(1H-1,2,4-triazol-3-ylthio)ethyl]oxy}phenyl)methyl]-3,4-dihydroquinazoline-2-carboxamide], the inhibition at 1 µM worked out at 99%.
Consider `Cc1csc2nc(C(=O)NCc3ccnc(OCCCc4nc[nH]n4)c3)[nH]c(=O)c12` [Example 24, 5-methyl-4-oxo-N-[(2-{[3-(1H-1,2,4-triazol-3-yl)propyl]oxy}pyridin-4-yl)methyl]-3,4-dihydrothieno[2,3-d]pyrimidine-2-carboxamide], for which the inhibition at 1 µM was 93%.
For `Cc1csc2nc(C(=O)NCc3ccnc(OCCSc4nc[nH]n4)c3)[nH]c(=O)c12` [Example 21, 5-methyl-4-oxo-N-[(2-{[2-(1H-1,2,4-triazol-3-ylthio)ethyl]oxy}pyridin-4-yl)methyl]-3,4-dihydrothieno[2,3-d]pyrimidine-2-carboxamide], the inhibition at 1 µM worked out at 100%.
As to `N#Cc1ccc2nc(C(=O)NCc3cccc(OCCOc4nc[nH]n4)c3)[nH]c(=O)c2c1` [Example 25, 6-cyano-4-oxo-N-[(3-{[2-(1H-1,2,4-triazol-3-yloxy)ethyl]oxy}phenyl)methyl]-3,4-dihydroquinazoline-2-carboxamide], the inhibition at 1 µM stood at 97%.
Turning to `N#Cc1ccc2nc(C(=O)NCc3cccc(NC(=O)c4nc[nH]n4)c3)[nH]c(=O)c2c1` [Example 38, 6-cyano-4-oxo-N-({3-[(1H-1,2,4-triazol-3-ylcarbonyl)amino]phenyl}methyl)-3,4-dihydroquinazoline-2-carboxamide], the inhibition at 1 µM worked out at 85%.
As for `N#Cc1ccc2nc(C(=O)NCc3ccnc(OCCSc4nc[nH]n4)c3)[nH]c(=O)c2c1` [Example 20, 6-cyano-4-oxo-N-[(2-{[2-(1H-1,2,4-triazol-3-ylthio)ethyl]oxy}pyridin-4-yl)methyl]-3,4-dihydroquinazoline-2-carboxamide], the inhibition at 1 µM was found to be 89%.
Turning to `O=C(NCc1cccc(OCCOc2nc[nH]n2)c1)c1nc2scc(-c3ccco3)c2c(=O)[nH]1` [Example 28, 5-furan-2-yl-4-oxo-N-[(3-{[2-(1H-1,2,4-triazol-3-yloxy)ethyl]oxy}phenyl)methyl]-3,4-dihydrothieno[2,3-d]pyrimidine-2-carboxamide], the inhibition at 1 µM stood at 96%.
On to `O=C(NCc1cccc(COCc2nc[nH]n2)c1)c1nc2ccccc2c(=O)[nH]1` [Example 30, 4-oxo-N-[(3-{[(1H-1,2,4-triazol-3-ylmethyl)oxy]methyl}phenyl)methyl]-3,4-dihydroquinazoline-2-carboxamide], for which the inhibition at 1 µM worked out at 96%.
As for `Cc1cccc2nc(C(=O)NCc3cccc(OCCSc4nc[nH]n4)c3)[nH]c(=O)c12` [Example 9, 5-methyl-4-oxo-N-[(3-{[2-(1H-1,2,4-triazol-3-ylthio)ethyl]oxy}phenyl)methyl]-3,4-dihydroquinazoline-2-carboxamide], the inhibition at 1 µM was 98%.
Turning to `N#Cc1ccc2nc(C(=O)NCc3cccc(CNC(=O)c4nc[nH]n4)c3)[nH]c(=O)c2c1` [Example 36, 6-cyano-4-oxo-N-[(3-{[(1H-1,2,4-triazol-3-ylcarbonyl)amino]methyl}phenyl)methyl]-3,4-dihydroquinazoline-2-carboxamide], the inhibition at 1 µM turned out to be 97%.
As to `Nc1ccc2nc(C(=O)NCc3cccc(OCCSc4nc[nH]n4)c3)[nH]c(=O)c2c1` [Example 7, 6-amino-4-oxo-N-[(3-{[2-(1H-1,2,4-triazol-3-ylthio)ethyl]oxy}phenyl)methyl]-3,4-dihydroquinazoline-2-carboxamide], the inhibition at 1 µM was 97%.
The figure for `Cc1ccc2nc(C(=O)NCc3cccc(OCCSc4nc[nH]n4)c3)[nH]c(=O)c2c1` [Example 6, 6-methyl-4-oxo-N-[(3-{[2-(1H-1,2,4-triazol-3-ylthio)ethyl]oxy}phenyl)methyl]-3,4-dihydroquinazoline-2-carboxamide] is 97%; for `O=C(NCc1cccc(OCCOc2nc[nH]n2)c1)c1nc2ccc(F)c(F)c2c(=O)[nH]1` [Example 44, 5,6-difluoro-4-oxo-N-[(3-{[2-(1H-1,2,4-triazol-3-yloxy)ethyl]oxy}phenyl)methyl]-3,4-dihydroquinazoline-2-carboxamide] it is 98%.
In the case of `N#Cc1ccc2nc(C(=O)NCc3cccc(OCCCCSc4nc[nH]n4)c3)[nH]c(=O)c2c1` [Example 17, 6-cyano-4-oxo-N-[(3-{[4-(1H-1,2,4-triazol-3-ylthio)butyl]oxy}phenyl)methyl]-3,4-dihydroquinazoline-2-carboxamide], the inhibition at 1 µM turned out to be 97%.
With `O=C(NCc1cccc(OCCSc2nc[nH]n2)c1)c1nc2ccc(Cl)cc2c(=O)[nH]1` [Example 5, 6-chloro-4-oxo-N-[(3-{[2-(1H-1,2,4-triazol-3-ylthio)ethyl]oxy}phenyl)methyl]-3,4-dihydroquinazoline-2-carboxamide], the inhibition at 1 µM worked out at 97%.
As for `O=C(O)c1ccc(OCCn2ncc3nc(C(=O)NCc4cccc(OCCOc5nc[nH]n5)c4)[nH]c(=O)c32)cc1` [Example 48, 4-({2-[7-oxo-5-({[(3-{[2-(1H-1,2,4-triazol-3-yloxy)ethyl]oxy}phenyl)methyl]amino}carbonyl)-6,7-dihydro-1H-pyrazolo[4,3-d]pyrimidin-1-yl]ethyl}oxy)benzoic acid], the inhibition at 1 µM was 99%.
For `O=C(NCc1ccnc(OCCCc2nc[nH]n2)c1)c1nc2ccccc2c(=O)[nH]1` [Example 22, 4-oxo-N-[(2-{[3-(1H-1,2,4-triazol-3-yl)propyl]oxy}pyridin-4-yl)methyl]-3,4-dihydroquinazoline-2-carboxamide] the value was 95%.
With `O=C(O)c1ccc(COCc2csc3nc(C(=O)NCc4ccnc(OCCCc5nc[nH]n5)c4)[nH]c(=O)c23)cc1` [Example 42, 4-[({[4-oxo-2-({[(2-{[3-(1H-1,2,4-triazol-3-yl)propyl]oxy}pyridin-4-yl)methyl]amino}carbonyl)-3,4-dihydrothieno[2,3-d]pyrimidin-5-yl]-methyl}oxy)methyl]benzoic acid], the inhibition at 1 µM is 98%.
In the case of `O=C(O)c1ccc(CCOc2c(F)ccc3nc(C(=O)NCc4cccc(OCCOc5nc[nH]n5)c4)[nH]c(=O)c23)cc1` [Example 46, 4-(2-{[6-fluoro-4-oxo-2-({[(3-{[2-(1H-1,2,4-triazol-3-yloxy)ethyl]oxy}phenyl)methyl]amino}carbonyl)-3,4-dihydroquinazolin-5-yl]oxy}ethyl)benzoic acid], the inhibition at 1 µM worked out at 100%.
Turning to `O=C(NCc1cccc(OCCSc2nc[nH]n2)c1)c1nc2cccc(F)c2c(=O)[nH]1` [Example 10, 5-fluoro-4-oxo-N-[(3-{[2-(1H-1,2,4-triazol-3-ylthio)ethyl]oxy}phenyl)methyl]-3,4-dihydroquinazoline-2-carboxamide], the inhibition at 1 µM came to 98%.

The values are drawn from patent US7915267B2, “Heterocyclic amide compound and use thereof” (Takeda Pharmaceutical Company Limited, priority 2005, dated 2011).
